One assay relates to 3T3-L1 cells. In words: Anti-adipocyte differentiation in 3T3-L1 cells (Oil Red O, WST-8 viability). In kind it is cell-based. The conditions noted are these: positive control, commercially available reagent, 50 μM. As to the method: [formula] formula (1) <Anti-Adipocyte Differentiation> [Reagents] • Dulbecco's modified eagle medium (DMEM): 10% FBS (fetal bovine sera) and 1% penicillin/streptomycin were added thereto. • TrypLE™ Select (1×) • IBMX: prepared to have a concentration of 0.5 mM with DMSO. • DEX: prepared to have a concentration of 1 μM with DMSO. • insulin solution human • WST-8: upon use, diluted with the DMEM medium to give a 2% WST-8. • Oil Red O: prepared to have a concentration of 5 mg/mL with isoPrOH, and upon use, diluted with pure water to give a 60% Oil Red O. [Method] • Day 1: 3T3-L1 Cells were previously cultured in a 10 cm dish to a state of 70 to 80% confluent. […] One-hundred microliters of the medium was transferred to a fresh 96-well plate, and the absorbance at 450 nm was measured with a microplate reader. Using those cells, a cell viability (%) was calculated as a relative value to the control. […] The 96-well plate was dried, 50 μL of 100% isoPrOH was added thereto, a mixture was allowed to stand at room temperature for 10 minutes, and the absorbance at 520 nm was then measured. Using those cells, an adipocyte differentiation (%) was calculated as a relative value to the control.
A general note: Tetrazolium assays rely on reduction of a dye to a coloured formazan, in cell work by metabolically active cells.

Assay [1] can be described thus: Antioxidant activity (DPPH radical scavenging rate). The assay is classed as biochemical. Conditions: positive control, commercially available reagent, 12.5 μM. In general terms: Loss of DPPH colour is used to gauge radical scavenging.
Experimental: Each sample dissolved in DMSO was dissolved in a 50 v/v % EtOH, so as to prepare a sample solution having a concentration of 25, 50, and 100 μg/mL, and dispensed in each well of a 96-well plate in an amount of 100 μL each. Thereto was added 100 μL each of a DPPH solution dissolved in EtOH so as to have a concentration of 0.1 mM, and the mixture was stirred with vortex (final concentration: 12.5, 25, or 50 μg/mL). Next, the plate was made light-resistant with an aluminum foil, and allowed to stand at room temperature (25° C.) for 30 minutes, and the absorbance at 517 nm was then measured (n=3). Using the absorbance obtained, the DPPH radical scavenging rate (%) was calculated according to the following formula (1). Here, as for the blank, the absorbance was measured in the same manner as the sample solutions except that a 50 v/v % EtOH containing 0.2% DMSO was used.
The 3T3-L1 cells were detached with TrypLE™ Select, and diluted with a DMEM medium to a concentration of 1.0×10^5 cells/mL, 100 μL each of a cell suspension was then dispensed into a 96-well plate, and the cells were cultured at 37° C. under 5% CO2. • Day 3: Each sample was prepared using a differentiation and induction medium (0.1% IBMX, 0.01% DEX). […] One-hundred microliters of the medium was transferred to a fresh 96-well plate, and the absorbance at 450 nm was measured with a microplate reader. […]

For `O=c1c(O)c(-c2ccc(O)c(O)c2)oc2cc(O)cc(O)c12` [Quercetin], the anti-adipocyte differentiation in the assay on 3T3-L1 cells is 50%. Regarding `O=C1O[C@H]([C@@H](O)CO)C(O)=C1O` [Vitamin C], in assay [1], the antioxidant activity amounted to 70%.

(Values after patent publication US12376614B2, “Method for producing hop processed product” (SUNTORY HOLDINGS LIMITED, priority 2016, dated 2025).)
